Test results: US9157122B2, “Method of diagnosing cancer and reagents therefor” (Garvan Institute of Medical Research, priority 2004, dated 2015)

Assays:
Assay type in all cases: cell-based, human
HCT116 cells [1] = test: Real-time RT-PCR gene expression in HCT116 cells treated with 5-Aza-2′-deoxycytidine and/or TSA; details: for expression of CpG island-associated genes that are unmethylated and transcriptionally repressed: DDX18, INSIG2, PTPN, RALBB, TSN, FIG. 16g-k; for expression of genes hypermethylated in HCT116 (EN1, SCTR and INHBB): genes linked to 2q14.2, FIG. 16b, c and d
Experimental: RNA was extracted using Trizol reagent (Invitrogen) according to the manufacturer's protocol. cDNA was reverse transcribed from 2 μg of total RNA using SuperScriptTM III RNase H^- Reverse Transcriptase (Invitrogen Life technologies), according to the manufacturer's instructions. The reaction was primed with 200 ng of random hexamers (Roche). The reverse transcription reaction was then diluted 1:20 with sterile H2O before addition to a PCR reaction. […] The primers used for amplification comprise a sequence set forth in any one of SEQ ID Nos 119 to 218. Primers were used in a combination described herein. To control for the amount and integrity of the RNA, the Human 18S ribosomal RNA (rRNA) kit (P/N 4308329) (Applied Biosystems), containing the rRNA forward and reverse primers and rRNA VICTM probe, was used. 5 μl of the reverse transcription was used in a 20 μl reaction in TaqMan Universal PCR Master Mix (P/N 4304437) with 1 μl of the 20× Human 18S rRNA mix. The reactions were performed in triplicate and the standard deviation was calculated using the Comparative method (ABI PRISM 7700 Sequence Detection system User Bulletin #2, […] 4303859). The cycle number corresponding to where the measured fluorescence crosses a threshold is […] to the amount of starting material. The mean expression levels are represented as the ratio between each gene and 18S rRNA expression. The colon cancer cell line HCT116 was cultured in D-MEM/F12 (Gibco/BRL) medium supplemented with MEM sodium pyruvate and L-Glutamine and 10% fetal calf serum at 37° C. with 10% CO2. Cells were split 1:8 every 3-4 days. Cells were split 12 h to 24 h prior to treatment. 5-Aza-2'-deoxycytidine (5-aza-dC)(Sigma) was prepared as a 1 mg/ml stock in sterile water, filter-sterilized and frozen as aliquots. 100 mm tissue culture dishes were seeded with 0.5×10^6 cells and following 24 h incubation the cells were treated with 0.5 μm 5-aza-dC. The cells were treated for 24 hours after which the medium was replaced with fresh medium and the cells cultured for a further 48 h before harvesting. Cells were treated with trichostatin A (TSA) (Sigma) at 25, 50 and 100 nM for 24 h. Alternatively, an identical volume of ethanol was used as a control. For co-treatment of cells with 5-aza-dC and TSA, 5-aza-dC was added initially for 24 h, after which it was removed and TSA was added for a further 24 h. The concentrations and the treatment conditions used were chosen based on preliminary studies showing optimal reactivation of gene expression. Expression levels of the genes DDX18, INSIG2, EN1, MARCO, PTPN4, RALBB, GLI2 and TSN was determined essentially as described above.

HCT116 cells [2] = test: ChIP assay with anti-dimethyl-histone H3(lys9) antibody in treated HCT116 cells, real-time PCR; details: relative to untreated cells; for methylation of H3-K9 histones associated with the p21 CpG island promoter region: FIG. 17a; for methylation of H3-K9 histones associated with the unmethylated genes (DDX18, INSIG2, PTPN, RALBB): FIG. 17g-k; for binding of methylated K9-H3 histones to DNA methylated genes (EN1, SCTR, INHBB, GLI2, MARCO): FIGS. 17b-f
Experimental: ChIP assays were carried out according to the manufacturer (Upstate Biotechnology) and described in Stirzaker et al., Cancer Res 64: 3871-3877, 2004. Briefly, 1×10^6 HCT116 cells, in a 10 cm dish, were fixed by adding formaldehyde at a final concentration of 1% and incubating for 10 minutes at 37° C. The cells were washed twice with ice cold PBS containing protease inhibitors (1 mM phenylmethylsulfonyl fluoride (PMSF), 1 μg/ml aprotinin and 1 μg/ml pepstatin A), harvested and treated with SDS lysis buffer for 10 min on ice. The resulting lysates were sonicated to shear the DNA to fragment lengths of 200 to 500 basepairs. […] No antibody controls were also included for each ChIP assay and no precipitation was observed. The antibody/protein complexes were collected by salmon sperm DNA/protein A agarose slurry and washed several times following the manufacturer's instructions. The immune complexes were eluted with 1% SDS and 0.1 M NaHCO3 and the crosslinks were reversed by incubation at 65° C. for 4 hours in the presence of 200 mM NaCl. The samples were treated with proteinase K for 1 hour and the DNA was purified by phenol/chloroform extraction, ethanol precipitation and resuspended in 30 μl H2O. The amount of target that was immunoprecipitated, was measured by Real-Time PCR using the ABI Prism 7900HT Sequence Detection System. Amplification primers are set forth SEQ ID NOs: 235 to 256. PCR reactions were set up according to the SDS compendium (ver 2.1) for the 7900HT Applied Biosystems Sequence Detector as described previously (Stirzaker, supra). Either immunoprecipitated DNA, no-antibody control or input chromatin were used in each PCR and the PCRs were set up in triplicate. Standard deviation was calculated using the Comparative method (ABI PRISM 7700 Sequence Detection System User Bulletin #2, […] 4303859). For each sample an average CT value was obtained for immunoprecipitated material and for the input chromatin. The difference in CT values (delta CT) reflects the difference in the amount of material that was immunoprecipitated relative to the amount of input (ABI PRISM 7700 Sequence Detection system User Bulletin #2, […] 4303859). To determine if chromatin modification was associated with the suppression of all the genes across the entire band in cancer, regardless of the DNA methylation status, ChIP (chromatin immunoprecipitation) analysis and real-time PCR was performed.

HCT116 cells [3] = test: ChIP assay with anti-acetylated histone antibody in treated HCT116 cells, real-time PCR; details: relative to untreated cells, FIG. 18
Experimental: ChIP assays were carried out according to the manufacturer (Upstate Biotechnology) and described in Stirzaker et al., Cancer Res 64: 3871-3877, 2004. Briefly, ˜1×10^6 HCT116 cells, in a 10 cm dish, were fixed by adding formaldehyde at a final concentration of 1% and incubating for 10 minutes at 37° C. The cells were washed twice with ice cold PBS containing protease inhibitors (1 mM phenylmethylsulfonyl fluoride (PMSF), 1 μg/ml aprotinin and 1 μg/ml pepstatin A), harvested and treated with SDS lysis buffer for 10 min on ice. The resulting lysates were sonicated to shear the DNA to fragment lengths of 200 to 500 basepairs. The complexes were immunoprecipitated with an antibody specific for dimethyl-histone H3(lys9), Upstate Biotechnology (#07-212) or acetylated histone. […]
The amount of target that was immunoprecipitated, was measured by Real-Time PCR using the ABI Prism 7900HT Sequence Detection System. […] Standard deviation was calculated using the Comparative method (ABI PRISM 7700 Sequence Detection System User Bulletin #2, 1997 (P/N 4303859). For each sample an average CT value was obtained for immunoprecipitated material and for the input chromatin. The difference in CT values (delta CT) reflects the difference in the amount of material that was immunoprecipitated relative to the amount of input (ABI PRISM 7700 Sequence Detection system User Bulletin #2, 1997 (P/N 4303859).

SMILES: CC(/C=C/C(=O)NO)=C\[C@@H](C)C(=O)c1ccc(N(C)C)cc1 [TSA, trichostatin A]
- p21 expression activated (control gene) (HCT116 cells [1]; 0.5 μm 5-aza-dC 24 h, TSA 24 h, co-treatment 5-aza-dC 24 h then TSA 24 h, normalised to 18S RNA, FIG. 16a): more than 3 fold
- expression of CpG island-associated genes that are unmethylated and transcriptionally repressed (HCT116 cells [1]): some reactivation
- expression of genes hypermethylated in HCT116 (EN1, SCTR and INHBB) (HCT116 cells [1]): small increases of expression
- methylation of H3-K9 histones associated with the p21 CpG island promoter region (HCT116 cells [2]): substantial demethylation
- methylation of H3-K9 histones associated with the unmethylated genes (DDX18, INSIG2, PTPN, RALBB) (HCT116 cells [2]): substantial demethylation
- binding of methylated K9-H3 histones to DNA methylated genes (EN1, SCTR, INHBB, GLI2, MARCO) (HCT116 cells [2]): binding was reduced
- H3-K9 acetylation for genes hypermethylated in HCT116 cells (HCT116 cells [3]): Increased H3-K9 acetylation

SMILES: Nc1ncn([C@H]2C[C@H](O)[C@@H](CO)O2)c(=O)n1 [5AzaC, 5-Aza-2′-deoxycytidine]
- expression of CpG island-associated genes that are unmethylated and transcriptionally repressed (HCT116 cells [1]): some reactivation
- expression of genes hypermethylated in HCT116 (EN1, SCTR and INHBB) (HCT116 cells [1]): small increases of expression
- methylation of H3-K9 histones associated with the p21 CpG island promoter region (HCT116 cells [2]): Demethylation of the H3-K9 histones also occurred
- methylation of H3-K9 histones associated with the unmethylated genes (DDX18, INSIG2, PTPN, RALBB) (HCT116 cells [2]): resulted in demethylation
- binding of methylated K9-H3 histones to DNA methylated genes (EN1, SCTR, INHBB, GLI2, MARCO) (HCT116 cells [2]): binding was reduced
